Assay results from patent US20060276528A1, “Novel benzo-fused heteroaryl sulfamide derivatives useful as anticonvulsant agents” (priority 2004, published 2006).

Key:
[1] = test system: MES-induced seizure (full body tonic extension); experiment: Maximal Electroshock Test (MES), anticonvulsant activity; type: in vivo, CF-1 male albino mice; conditions: oral; for MES @100 mpk: (number of mice with full body tonic extension prevented)/(total number of mice tested) / MES @100 mpk, result in words: 100 mg/kg; for MES @100 mpk, result in words: mice, time not given; for MES @ 300 mpk: (number of mice with full body tonic extension prevented)/(total number of mice tested): 300 mg/kg
Description: Anticonvulsant activity was determined using the MES test, run according to the procedure described in detail below. Swinyard E A, Woodhead J H, White H S, Franklin M R. Experimental selection, quantification, and evaluation of anticonvulsants. In Levy R H, et al., eds. Antiepileptic Drugs. 3rd ed. New York: Raven Press, 1989:85-102 CF-1 male albino mice (25-35 g) were fasted for 16 hours before testing. Mice were randomly selected into control and test groups, with the animals dosed with vehicle or test compound, at varying concentrations, respectively. On the study date, at 30 minutes prior to shock, the mice were orally dosed with vehicle (0.5% methylcellulose) or test compound (100-300 mg/kg). Seizures were induced by trans-corneal electric shock using a 60-Hz alternating current, 50 mA, delivered for 0.2 sec. The mice in the test groups were subjected to electrical stimulus at time intervals between 15 minutes and 4 hours following administration of test compound. […] The test was complete when the entire course of the convulsion has been observed (typically, less than 1 minute after electrical stimulation), and the mice were then immediately euthanized by carbon dioxide inhalation. Abolition of the full body tonic extensor component of the seizure was taken as the endpoint of the test. […] The ED50 value of the test compound (calculated when appropriate) was the calculated dose required to block the hind limb tonic-extensor component of the MES-induced seizure in 50% of the rodents tested. A probit analysis was used to calculate the ED50 and 95% fiducial limits (FL). Representative compounds of the present invention were tested according to the procedure described above, with results as listed in Table 6 below. Results are listed as (number of mice with full body tonic extension prevented)/(total number of mice tested) (@ a given time).

[2] = test system: carbonic anhydrase; conditions: background statement, figure not given; cited from earlier work

NS(=O)(=O)NCc1csc2ccccc12 [Compound 1, N-(benzo[b]thien-3-ylmethyl)-sulfamide]
MES @100 mpk: (number of mice with full body tonic extension prevented)/(total number of mice tested) ([1]; 0.5 h after dosing): 1/5 (0.5 h) | MES @100 mpk: (number of mice with full body tonic extension prevented)/(total number of mice tested) ([1]; 2 h after dosing): 3/5 (2 h) | MES @100 mpk: (number of mice with full body tonic extension prevented)/(total number of mice tested) ([1]; 4 h after dosing): 2/5 (4 h)

NS(=O)(=O)NCc1csc2ccc(Cl)cc12 [Compound 3, N-[(5-chlorobenzo[b]thien-3-yl)methyl]-sulfamide]
MES @100 mpk, result in words [1]: inactive | MES @ 300 mpk: (number of mice with full body tonic extension prevented)/(total number of mice tested) ([1]; 0.5 hr after dosing): 0/5 (0.5 hr) | MES @ 300 mpk: (number of mice with full body tonic extension prevented)/(total number of mice tested) ([1]; 2 hr after dosing): 3/5 (2 hr) | MES @ 300 mpk: (number of mice with full body tonic extension prevented)/(total number of mice tested) ([1]; 4 hr after dosing): 1/5 (4 hr)

NS(=O)(=O)NCc1coc2ccccc12 [Compound 6, N-(3-benzofuranylmethyl)-sulfamide]
MES @100 mpk, result in words [1]: inactive | MES @ 300 mpk: (number of mice with full body tonic extension prevented)/(total number of mice tested) ([1]; 0.5 hr after dosing): 5/5 (0.5 hr) | MES @ 300 mpk: (number of mice with full body tonic extension prevented)/(total number of mice tested) ([1]; 2 hr after dosing): 0/5 (2 hr) | MES @ 300 mpk: (number of mice with full body tonic extension prevented)/(total number of mice tested) ([1]; 4 hr after dosing): 0/5 (4 hr)

Cn1cc(CNS(N)(=O)=O)c2ccccc21 [Compound 7, N-[(1-methyl-1H-indol-3-yl)methyl]-sulfamide]
MES @100 mpk, result in words [1]: inactive | MES @ 300 mpk: (number of mice with full body tonic extension prevented)/(total number of mice tested) ([1]; 0.5 hr after dosing): 5/5 (0.5 hr) | MES @ 300 mpk: (number of mice with full body tonic extension prevented)/(total number of mice tested) ([1]; 2 hr after dosing): 0/5 (2 hr) | MES @ 300 mpk: (number of mice with full body tonic extension prevented)/(total number of mice tested) ([1]; 4 hr after dosing): 0/5 (4 hr)

NS(=O)(=O)NCc1csc2ccc(F)cc12 [Compound 8, N-[(5-fluorobenzo[b]thien-3-yl)methyl]-sulfamide]
MES @100 mpk: (number of mice with full body tonic extension prevented)/(total number of mice tested) ([1]; 0.5 h after dosing): 0/5 (0.5 h) | MES @100 mpk: (number of mice with full body tonic extension prevented)/(total number of mice tested) ([1]; 2 h after dosing): 4/5 (2 h) | MES @100 mpk: (number of mice with full body tonic extension prevented)/(total number of mice tested) ([1]; 4 h after dosing): 1/5 (4 h)

CC(NS(N)(=O)=O)c1csc2ccccc12 (stereo not shown) [Compound 9, N-(1-benzo[b]thien-3-ylethyl)-sulfamide]
MES @100 mpk: (number of mice with full body tonic extension prevented)/(total number of mice tested) ([1]; 0.5 h after dosing): 1/5 (0.5 h) | MES @100 mpk: (number of mice with full body tonic extension prevented)/(total number of mice tested) ([1]; 2 h after dosing): 0/5 (2 h) | MES @100 mpk: (number of mice with full body tonic extension prevented)/(total number of mice tested) ([1]; 4 h after dosing): 0/5 (4 h)

NS(=O)(=O)NCc1cccc2ccccc12 [Compound 10, N-(1-naphthalenylmethyl)-sulfamide]
MES @100 mpk: (number of mice with full body tonic extension prevented)/(total number of mice tested) ([1]; 0.5 h after dosing): 2/5 (0.5 h) | MES @100 mpk: (number of mice with full body tonic extension prevented)/(total number of mice tested) ([1]; 2 h after dosing): 1/5 (2 h) | MES @100 mpk: (number of mice with full body tonic extension prevented)/(total number of mice tested) ([1]; 4 h after dosing): 0/5 (4 h)

Cc1oc2ccccc2c1CNS(N)(=O)=O [Compound 13]
MES @100 mpk: (number of mice with full body tonic extension prevented)/(total number of mice tested) ([1]; 0.5 h after dosing): 4/5 (0.5 h) | MES @100 mpk: (number of mice with full body tonic extension prevented)/(total number of mice tested) ([1]; 2 h after dosing): 0/5 (2 h) | MES @100 mpk: (number of mice with full body tonic extension prevented)/(total number of mice tested) ([1]; 4 h after dosing): 0/5 (4 h)

NS(=O)(=O)NCc1csc2ccc(Br)cc12 [Compound 15, N-[(5-bromobenzo[b]thien-3-yl)methyl]-sulfamide]
MES @ 300 mpk: (number of mice with full body tonic extension prevented)/(total number of mice tested) ([1]; 0.5 hr after dosing): 0/3 (0.5 hr) | MES @ 300 mpk: (number of mice with full body tonic extension prevented)/(total number of mice tested) ([1]; 2 hr after dosing): 0/3 (2 hr) | MES @ 300 mpk: (number of mice with full body tonic extension prevented)/(total number of mice tested) ([1]; 4 hr after dosing): 1/3 (4 hr)

NS(=O)(=O)NCc1csc2cccc(Br)c12 [Compound 17, N-[(4-bromobenzo[b]thien-3-yl)methyl]-sulfamide]
MES @ 300 mpk: (number of mice with full body tonic extension prevented)/(total number of mice tested) ([1]; 0.5 hr after dosing): 0/3 (0.5 hr) | MES @ 300 mpk: (number of mice with full body tonic extension prevented)/(total number of mice tested) ([1]; 2 hr after dosing): 0/3 (2 hr) | MES @ 300 mpk: (number of mice with full body tonic extension prevented)/(total number of mice tested) ([1]; 4 hr after dosing): 1/3 (4 hr)

NS(=O)(=O)NCc1csc2c(F)cccc12 [Compound 18, N-[(7-fluorobenzo[b]thien-3-yl)methyl]-sulfamide]
MES @ 300 mpk: (number of mice with full body tonic extension prevented)/(total number of mice tested) ([1]; 0.5 hr after dosing): 0/3 (0.5 hr) | MES @ 300 mpk: (number of mice with full body tonic extension prevented)/(total number of mice tested) ([1]; 2 hr after dosing): 2/3 (2 hr) | MES @ 300 mpk: (number of mice with full body tonic extension prevented)/(total number of mice tested) ([1]; 4 hr after dosing): 0/3 (4 hr)

CC1(C)O[C@@H]2[C@@H](CO[C@@]3(COS(N)(=O)=O)OC(C)(C)O[C@@H]23)O1 [Topiramate]
carbonic anhydrase inhibition [2]: single digit micromolar
